pIC50: −log10 of the molar value.
Target: T1, Beta-amyloid (Aβ) peptide Aβ1–40 (Homo sapiens, UniProt P05067)
T1 construct: gene APP; Aβ1–40 (Aβ1–42 and Aβ25–35 also measured)
Experiment: Thioflavin T fibril formation assay on the isolated peptide, […] hr at […] °C; electron microscopy (Aβ[…] and Aβ[…])
Type: biochemical

T1 sequence (P05067 672-711 limits assumed): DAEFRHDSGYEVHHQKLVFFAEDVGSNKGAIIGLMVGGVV

pIC50: ~5.00
Structure (SMILES): CCN1C=CC(=CC=C(C=Cc2cc[n+](CC)c3ccccc23)c2cc[n+](CC)c3ccccc23)c2ccccc21 [NK-4, 4,4′-[3-{2-(1-ethyl-4(1H)-quinolylidene)ethylidene}propenylene] bis(1-ethylquinolinium iodide)]
